We go through one molecule from article PMC9096165 (Frontiers in Pharmacology, 2022).

Each structure is given as a SMILES string.

As usually defined, the IC50 is the point on the concentration scale where inhibition reaches its midpoint.

Data set [1] deals with panel of GPCRs, enzymes, ion channels, transporters, and nuclear receptors. The data set is described as follows: Safety screen off-target panel (Eurofins Cerep SafetyScreen44). The class given is binding. The settings on record: tested at 10 μM; all the receptors studied. The procedure:
Selectivity assays were performed at Eurofins Cerep as a contract service. A summary of the protocol and the reference for the assays are listed on the Eurofins Cerep website at (https://www.eurofinsdiscoveryservices.com/catalogmanagement/viewItem/SafetyScreen44-Panel-Cerep/P270). The tested targets are listed below:
GPCRs: A2A (agonist radioligand), α1A (antagonist radioligand), α2A (antagonist radioligand), β1 (agonist radioligand), β2 (agonist radioligand), BK1 (antagonist and agonist radioligand), BK2 (antagonist and agonist radioligand), CB1 (antagonist and agonist radioligand), CB2 (antagonist and agonist radioligand), CCK1 (CCKA) (agonist radioligand), D1 (antagonist radioligand), D2 (antagonist and agonist radioligand), D3 (antagonist and agonist radioligand), ETA (agonist radioligand), H1 (antagonist radioligand), H2 (antagonist radioligand), M1 (antagonist radioligand), M2 (antagonist and agonist radioligand), M3 (antagonist radioligand), NK1 (agonist radioligand), δ (DOP) (agonist radioligand), κ(KOP) (agonist radioligand), µ(MOP) (agonist radioligand), ORL1 (agonist radioligand), 5-HT1A (agonist radioligand), 5-HT1B (antagonist radioligand), 5-HT2A (agonist radioligand), 5-HT2B (agonist radioligand), and V1a (agonist radioligand). […]

For a further data set, the system named is CXCR2. The data set is described as follows: CXCR2 mRNA expression in F11 cells (RT PCR). The class given is cell-based. The settings on record: DF2755A 1 µM + CYP 100 nM. An excerpt:
For these experiments, cells at 18th passage were used.
Triplicate samples were run for each gene.

Data set [2] deals with CYP-induced non-ulcerative IC rat model. The data set can be described thus: Mechanical nociceptive abdominal and hind paw test (Von Frey) in chronic CYP-induced non-ulcerative IC/BPS. In kind it is in vivo, female Sprague–Dawley rats. The procedure:
CYP was administered to the animals by the intraperitoneal (i.p.) route (5 ml kg^−1) at the dosage of 75 mg kg^−1 for three times every third day to elicit chronic bladder irritation, as previously described ([Vizzard et al., 1996]).
DF2755A was administered by oral gavage (2 ml kg^−1) at different doses and times before, during, or after CYP treatment, as specified hereunder. DF2755A dosages were chosen based on previous studies that described pharmacokinetics, pharmacodynamics, and pharmacological characterization of the compound ([Lopes et al., 2016]).
Acute treatment: DF2755A was administered 24 h after the last CYP administration at 3, 7, 10, and 30 mg kg^−1.
Chronic preventive treatment: DF2755A was administered 12 h before the first CYP administration (20 mg kg^−1) and then twice daily (7 mg kg^−1) for 7 days during IC development.
Chronic therapeutic treatment: DF2755A was administered twice daily for 7 days at 7 mg kg^−1, starting from 24 h after the last CYP injection.
On the day of the test, each rat was placed individually in a clear plastic testing box with a grid floor and allowed to acclimatize for at least 10 min. Peripheral sensitivity in response to mechanical stimuli was determined using Von Frey monofilaments (1-2-4-8-15-26-60–100 g; Ugo Basile, Comerio, Varese, Italy) applied in the lower abdominal area (close to the urinary bladder) and on both hind paw plantar surfaces (to evaluate referred pain).
Each Von Frey monofilament was applied five times at the level of abdomen and three times at the level of each paw, in an ascending order of strength at interval of 5 s. A stimulus-induced response was considered positive when the paw was sharply withdrawn, paw licking occurred, or the animal flinched upon removal of the filament.
Behavioral testing was performed at different times: • 1) before CYP administration, in order to acquire basal values; • 2) after CYP administration and before DF2755A treatment, in order to verify the pathology induction and acquire pre-treatment values; • 3) at different times after DF2755A treatment, in order to acquire post-treatment values, specifically at 2 and 18 h after the last treatment.

In a further data set the test system is CXCR1. Also on record: method as in Lopes et al., 2016. The settings on record: ref Lopes et al., 2016; cited from earlier work.
[3] abbreviates: acute oral treatment 24 h after last CYP, abdomen and hind paw, 2 h after administration.
Setting [4] is: preventive: 20 mg kg^−1 12 h before first CYP, then 7 mg kg^−1 twice daily for 7 days p.o., 24 h after last CYP.
Where [5] appears, read: therapeutic 7 mg kg^−1 twice daily for 7 days, 3 and 7 days after treatment discontinuation.
Setting [6] is: therapeutic 7 mg kg^−1 twice daily for 7 days, 18 h after the last administration.

As for `C[C@H](C(=O)[O-])c1ccc(Nc2nc(C(F)(F)F)cs2)cc1.[Na+]` [DF2755A, sodium (2S)-2-(4-{[4-(trifluoromethyl)-1,3-thiazol-2-yl]amino}phenyl)propanoate], the “off-target effects in the safety screen assay” value in data set [1] is reported as “neglectable effects”. Also, the “CXCR2 mRNA expression in CYP-exposed cells” value in the data set on CXCR2 is reported as “restored the mRNA expression of all the targets to control values”. Besides, in data set [2] (setting [3]), the “dose at which the antinociceptive effects reached a plateau” value was determined as 7 mg/kg and the “dose from which the antinociceptive effect was statistically significant” value is 3 mg/kg. In addition, in data set [2] (setting [4]), the “decrease of mechanical stimulus threshold versus basal values, hind paws” value worked out at 17% and the “decrease of mechanical stimulus threshold versus basal values, low abdomen” value was “about 30%”. Moreover, the “duration of anti-hyperalgesic effect after treatment discontinuation” value in data set [2] (therapeutic 7 mg kg^−1 twice daily for 7 days) was “up to 7 days”. For the same molecule, in data set [2] (setting [5]), the “decrease of the threshold to mechanical stimulus, hind paw plantar surfaces” value came out at 40% and the “reduction of the threshold to mechanical stimulus, low abdomen” value is 53%. Besides, in data set [2] (setting [6]), the “decrease of mechanical stimulus threshold, low abdomen” value is listed as 55% and the “decrease of the threshold to mechanical stimulus, hind paw plantar surfaces” value is given as 33%. For the same molecule, the “reduction of the threshold to mechanical stimuli, low abdomen” value in data set [2] (therapeutic: 7 mg kg^−1 twice daily for 7 days p.o. from 24 h after last CYP, 2 h after last treatment (Figure 4A)) came out at 24%. Besides, the “decrease of the threshold to mechanical stimuli, hind paw plantar surfaces” value in data set [2] (therapeutic: 7 mg kg^−1 twice daily for 7 days p.o. from 24 h after last CYP, 2 h after last treatment (Figure 4B)) is 4%. In the data set with CXCR1, the IC50 is 4.2 nM.
